In ChEMBL document CHEMBL1201862, “PubChem BioAssay data set” (2004):
Active and inactive are the calls of the source.

Legend:
[1] = biological target: T1, RNA-binding protein pos-1 (Caenorhabditis elegans, UniProt G5EF15); test: disruptors of C. elegans POS-1 RNA interaction – biochemical, fluorescence polarization, dose response (AID 1964);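 further: purified POS-1 fused to maltose binding protein made in E. coli; potency of compounds blocking POS-1 binding to fluorescent RNA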
T1 sequence (G5EF15 whole entry): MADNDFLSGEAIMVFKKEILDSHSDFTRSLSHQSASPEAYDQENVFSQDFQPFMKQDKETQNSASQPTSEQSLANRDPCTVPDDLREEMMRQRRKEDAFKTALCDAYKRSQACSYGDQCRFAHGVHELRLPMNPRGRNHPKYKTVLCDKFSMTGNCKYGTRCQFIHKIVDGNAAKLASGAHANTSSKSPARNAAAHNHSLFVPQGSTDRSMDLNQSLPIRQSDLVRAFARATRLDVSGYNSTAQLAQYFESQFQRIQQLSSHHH

[2] = biological target: T2, Zinc finger protein mex-5 (Caenorhabditis elegans, UniProt Q9XUB2); test: potency of MEX-5 RNA-binding blockers – biochemical, C. elegans, fluorescence polarization, dose response (AID 1960)
T2 sequence (Q9XUB2 whole entry): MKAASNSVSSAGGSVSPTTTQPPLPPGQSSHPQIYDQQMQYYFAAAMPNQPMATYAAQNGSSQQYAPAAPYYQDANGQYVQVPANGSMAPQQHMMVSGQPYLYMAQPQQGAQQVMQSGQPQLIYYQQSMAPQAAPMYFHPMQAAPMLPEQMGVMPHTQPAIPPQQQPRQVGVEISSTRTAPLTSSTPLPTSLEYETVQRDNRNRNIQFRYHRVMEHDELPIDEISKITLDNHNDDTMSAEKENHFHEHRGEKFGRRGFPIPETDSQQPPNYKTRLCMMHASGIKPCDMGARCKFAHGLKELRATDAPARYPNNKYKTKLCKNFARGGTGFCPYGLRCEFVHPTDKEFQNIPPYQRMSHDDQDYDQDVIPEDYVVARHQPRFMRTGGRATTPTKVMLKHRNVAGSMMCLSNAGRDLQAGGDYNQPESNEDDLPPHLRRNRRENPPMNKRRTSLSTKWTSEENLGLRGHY

[3] = biological target: T3, Short transient receptor potential channel 4 (Mus musculus, UniProt Q9QUQ5); test: calcium entry via TRPC4 opening agents – cell-based, HEK293 TRPC4/mu-opioid, Fluo-4 calcium, dose response (AID 434937); type: functional
T3 sequence (Q9QUQ5 whole entry): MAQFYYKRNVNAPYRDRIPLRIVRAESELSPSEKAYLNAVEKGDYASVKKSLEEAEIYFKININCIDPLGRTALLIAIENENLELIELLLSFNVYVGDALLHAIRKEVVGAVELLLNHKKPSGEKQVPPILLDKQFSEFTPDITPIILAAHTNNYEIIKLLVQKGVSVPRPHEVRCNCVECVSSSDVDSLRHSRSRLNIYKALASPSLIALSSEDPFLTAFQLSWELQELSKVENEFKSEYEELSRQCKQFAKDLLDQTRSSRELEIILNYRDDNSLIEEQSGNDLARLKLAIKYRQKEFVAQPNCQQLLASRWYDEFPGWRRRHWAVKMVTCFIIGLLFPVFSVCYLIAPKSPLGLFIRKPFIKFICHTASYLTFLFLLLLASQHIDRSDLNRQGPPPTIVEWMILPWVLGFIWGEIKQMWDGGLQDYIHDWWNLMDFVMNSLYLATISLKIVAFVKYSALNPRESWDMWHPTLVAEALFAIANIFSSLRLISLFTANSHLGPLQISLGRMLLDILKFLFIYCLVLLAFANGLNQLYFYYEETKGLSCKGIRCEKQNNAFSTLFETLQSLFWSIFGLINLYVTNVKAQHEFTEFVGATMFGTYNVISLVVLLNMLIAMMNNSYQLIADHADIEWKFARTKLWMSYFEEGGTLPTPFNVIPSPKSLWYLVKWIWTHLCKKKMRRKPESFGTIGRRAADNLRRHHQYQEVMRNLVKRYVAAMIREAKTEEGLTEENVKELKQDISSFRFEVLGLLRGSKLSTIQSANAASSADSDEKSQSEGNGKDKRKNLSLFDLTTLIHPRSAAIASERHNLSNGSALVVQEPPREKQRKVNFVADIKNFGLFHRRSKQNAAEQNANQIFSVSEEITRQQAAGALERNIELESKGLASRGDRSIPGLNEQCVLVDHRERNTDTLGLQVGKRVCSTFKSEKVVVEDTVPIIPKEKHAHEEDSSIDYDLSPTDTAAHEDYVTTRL

[4] = biological target: T4, Polyadenylate-binding protein 1 (Homo sapiens, UniProt P11940); test: MLLE binding blockers, Cy5 peptide tracer – biochemical, fluorescence polarization, Cy5-PAM2 peptide, secondary, miRNA deadenylation inhibitor project, dose response (AID 602260); type: functional; settings: read-out: IC50_Mean
[5] = biological target: T4, Polyadenylate-binding protein 1; test: MLLE domain peptide-binding blockers, IC50 – biochemical, fluorescence polarization, FITC-PAM2 peptide, dose response (AID 602259); type: functional; settings: read-out: IC50_Mean
HEK293 = test: EBV LMP1 TES2 canonical NF-kB signalling blockers – cell-based, HEK293, luciferase, cherry-pick, dose response (AID 588343); type: functional; settings: Homo sapiens
[6] = biological target: T5, Heat shock factor protein 1 (Mus musculus, UniProt P38532); test: decrease of HSF1-responsive luciferase luminescence – cell-based, NIH3T3, dose retest, confirmation (AID 2382); type: functional;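 further: NIH3T3 fibroblasts with HSF1-driven luciferase reporter stressed by proteasome inhibitor MG132; luminescence from HSF1-driven luciferase expression after 8 hours of MG132 stress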
T5 sequence (P38532 whole entry): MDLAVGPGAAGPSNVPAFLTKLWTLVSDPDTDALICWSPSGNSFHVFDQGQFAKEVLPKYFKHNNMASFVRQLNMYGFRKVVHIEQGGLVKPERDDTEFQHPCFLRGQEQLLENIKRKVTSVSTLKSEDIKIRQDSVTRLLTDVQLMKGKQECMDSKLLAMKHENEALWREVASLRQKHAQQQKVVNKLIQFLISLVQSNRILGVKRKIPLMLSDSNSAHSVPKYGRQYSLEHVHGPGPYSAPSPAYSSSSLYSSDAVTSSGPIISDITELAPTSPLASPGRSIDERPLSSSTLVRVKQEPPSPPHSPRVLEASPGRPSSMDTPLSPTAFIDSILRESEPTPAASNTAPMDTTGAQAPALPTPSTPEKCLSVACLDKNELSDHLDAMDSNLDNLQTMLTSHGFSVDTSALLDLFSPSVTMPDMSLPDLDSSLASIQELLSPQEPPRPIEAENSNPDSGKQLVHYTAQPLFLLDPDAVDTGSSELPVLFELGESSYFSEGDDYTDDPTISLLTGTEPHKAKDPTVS

[7] = Luminescence Cell-Based Dose Response HTS to Identify Inhibitors of 5'UTR Stem-Loop Driven Prion Protein mRNA Translation in H4 Neuroglioblastoma Cells. [Related pubchem assays: 1827 (Project Summary), 1813 (Primary HTS)]; type: functional
[8] = NIH3T3 cell viability loss – ATP luminescence, mouse fibroblasts, counter-screen, dose response (AID 2010); type: functional, cell-based;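 further: cells exposed to compound for about 90 hours before reading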
[9] = Trypanosoma cruzi growth suppression in host cells – NIH3T3 host cells, beta-gal luminescence, confirmation (AID 2044); type: functional, cell-based;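 further: intracellular parasites grown in NIH/3T3 mouse fibroblasts as host cells; luminescent beta-galactosidase reporter signal from transgenic T. cruzi replicating inside host cells; inhibitors lower the luminescence signal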
[10] = viability of HCT116 lacking mutant beta-catenin – cell-based, human colon tumor, dose response (AID 1045); type: functional;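 further: HCT116 colon tumor cells with beta catenin knocked out; cells exposed to compound for 60 hours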
[11] = HEK-293T viability loss after treatment – luminescence, T-cell screen hits, cytotoxicity control for TCR NF-kB inhibitor project, dose response (AID 489026); type: functional, cell-based;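 further: cells exposed to compound about 14 hours before the viability readout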
[12] = luciferase reporter signal suppression in cells – H4 neuroglioma cells, luminescence, dose response (AID 1990); type: functional, cell-based
[13] = alpha-synuclein stem-loop luciferase translation blockers – H4 neuroglioma cells, luminescence, confirmation (AID 1988); type: functional, cell-based
[14] = viability of PTEN-deleted HCT116 cells – cell-based, HCT116 PTEN knockout, dose response (AID 1047); type: functional;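 further: HCT116 colon tumor cells with PTEN knocked out; cells exposed to compound for 60 hours before readout; potency for loss of cell viability measured by luminescence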
Genome polyprotein = Genome polyprotein (dengue virus type 2, UniProt P29990); test: flavivirus cap methylation enzyme inhibition – biochemical, confirmation dose response, primary screen (AID 588689); type: functional
Genome polyprotein, sequence (P29990 2492-3391 limits assumed): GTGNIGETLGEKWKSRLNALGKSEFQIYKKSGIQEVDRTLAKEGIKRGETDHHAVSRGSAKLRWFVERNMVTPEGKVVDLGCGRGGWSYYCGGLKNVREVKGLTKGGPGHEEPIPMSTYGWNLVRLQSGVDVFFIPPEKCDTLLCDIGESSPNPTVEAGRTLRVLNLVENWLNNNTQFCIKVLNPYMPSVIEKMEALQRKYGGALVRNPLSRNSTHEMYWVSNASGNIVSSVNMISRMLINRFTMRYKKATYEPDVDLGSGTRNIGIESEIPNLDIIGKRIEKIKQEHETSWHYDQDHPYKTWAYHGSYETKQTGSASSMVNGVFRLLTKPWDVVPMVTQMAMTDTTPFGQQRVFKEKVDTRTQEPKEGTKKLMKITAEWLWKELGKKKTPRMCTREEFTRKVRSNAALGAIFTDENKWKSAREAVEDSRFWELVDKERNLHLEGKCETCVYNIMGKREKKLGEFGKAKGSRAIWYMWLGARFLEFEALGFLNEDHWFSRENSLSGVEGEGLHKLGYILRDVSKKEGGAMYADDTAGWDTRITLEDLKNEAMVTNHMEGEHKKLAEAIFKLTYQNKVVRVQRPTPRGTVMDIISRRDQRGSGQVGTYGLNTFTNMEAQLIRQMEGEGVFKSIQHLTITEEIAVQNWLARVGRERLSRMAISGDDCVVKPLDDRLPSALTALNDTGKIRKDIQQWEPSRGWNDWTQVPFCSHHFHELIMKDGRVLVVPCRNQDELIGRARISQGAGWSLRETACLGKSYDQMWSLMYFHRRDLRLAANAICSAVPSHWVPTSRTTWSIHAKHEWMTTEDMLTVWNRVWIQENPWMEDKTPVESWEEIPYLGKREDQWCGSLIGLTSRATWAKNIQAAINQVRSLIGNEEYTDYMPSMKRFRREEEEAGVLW

T4 sequence (P11940 whole entry, the tested form may be a part): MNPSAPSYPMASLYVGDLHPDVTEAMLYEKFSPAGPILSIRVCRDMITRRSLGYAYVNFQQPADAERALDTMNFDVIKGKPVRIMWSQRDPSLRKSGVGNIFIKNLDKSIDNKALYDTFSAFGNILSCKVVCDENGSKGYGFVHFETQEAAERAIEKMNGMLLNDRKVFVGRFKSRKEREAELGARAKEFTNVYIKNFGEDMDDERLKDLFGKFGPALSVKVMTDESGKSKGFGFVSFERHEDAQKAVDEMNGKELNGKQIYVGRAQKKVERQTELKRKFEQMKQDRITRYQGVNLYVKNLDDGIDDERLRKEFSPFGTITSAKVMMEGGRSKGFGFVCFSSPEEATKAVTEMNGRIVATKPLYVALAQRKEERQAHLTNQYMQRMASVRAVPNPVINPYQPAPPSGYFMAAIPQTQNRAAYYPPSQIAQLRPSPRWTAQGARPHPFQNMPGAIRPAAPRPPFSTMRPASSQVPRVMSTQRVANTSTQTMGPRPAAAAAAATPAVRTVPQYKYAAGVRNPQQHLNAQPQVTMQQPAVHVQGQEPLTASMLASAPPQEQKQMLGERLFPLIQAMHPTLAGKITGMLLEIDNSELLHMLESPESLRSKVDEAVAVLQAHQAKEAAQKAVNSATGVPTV

Question: What does the source list for `COC(=O)C1=NN(C(=O)c2ccc(C)cc2)C(O)(c2ccc(Cl)cc2)C1` (configuration not stated)?
Answer: EC50 [1]: > 300 µM (not active); EC50 [2]: 37.7 µM (inconclusive); EC50 [3]: 6.68 µM (active)

Question: What does the source list for `Cc1ccc(S(=O)(=O)N2CCCCC2)cc1NC(=S)NC(=O)c1ccco1`?
Answer: IC50 [4]: > 66 µM (inactive); IC50 [5]: > 66 µM (inactive)

Question: For `COc1cccc(C(=O)NC2CCCN(C3Cc4ccccc4C3)C2)c1OC` (configuration not stated), which EC50 [3] is on record?
Answer: The EC50 was 5.31 µM (active).

Question: With `O=C(Cc1ccc(Br)cc1)N1CCN(c2ccccn2)CC1` as the compound, how does the IC50 [4] read?
Answer: The IC50 was > 66 µM (inactive).

Question: What about the IC50 [5] of the same compound?
Answer: The IC50 was > 66 µM (inactive).

Question: For `Cc1cccc(CN2CCN(Cc3ccc(Cl)cc3)CC2)c1`, which AC50 (HEK293) is on record?
Answer: The AC50 was 53.2 µM (active).

Question: Which AC50 (HEK293) does the source give for `Cc1sc2ncnc(N3CCC(C(=O)Nc4ccccc4C(C)(C)C)CC3)c2c1C` here?
Answer: Its AC50 is 16.8 µM (active).

Question: Which IC50 [4] does the source give for `COc1ccc(C(=O)NC(=S)NCc2cccnc2)cc1[N+](=O)[O-]` here?
Answer: Its IC50 is > 66 µM (inactive).

Question: What about the IC50 [5] of the same compound?
Answer: The IC50 was > 66 µM (inactive).

Question: Which EC50 [6] does the source give for `Oc1ccc(Nc2nc3ccccc3nc2Nc2ccc(O)cc2)cc1` here?
Answer: Its EC50 is > 195 µM (not active).

Question: And the EC50 [7]?
Answer: The EC50 was 117 µM (active).

Question: And the EC50 [8]?
Answer: Its EC50 is > 30 µM (not active).

Question: What about the EC50 [9] of the same compound?
Answer: The EC50 was 4.43 µM (active).

Question: What about the EC50 [10] of the same compound?
Answer: Its EC50 is 1.19 µM (active).

Question: What about the IC50 [11] of the same compound?
Answer: Its IC50 is 67.3 µM (inactive).

Question: What about the EC50 [12] of the same compound?
Answer: Its EC50 is 21.4 µM (active).

Question: And the EC50 [13]?
Answer: The EC50 was > 120 µM (not active).

Question: And the EC50 [14]?
Answer: Its EC50 is 1.25 µM (active).

Question: Which IC50 (Genome polyprotein) does the source give for `O=C(O)c1cc([N+](=O)[O-])c(Sc2nc3ccccc3[nH]2)c([N+](=O)[O-])c1` here?
Answer: Its IC50 is > 100 µM (active).
